From patent US20230143604A1, “QW DOSING OF GIP RECEPTOR AGONIST PEPTIDE COMPOUNDS AND USES THEREOF” (TAKEDA PHARMACEUTICAL COMPANY LIMITED, priority 2020, published 2023)
Starred links: 1 amine or outer side, 2 acyl side, 3 side chain; linkers in the order of their positions; H or OH if unused. Non-standard residues stand in square brackets, D forms with d. Residues, ends and D or L forms follow the SMILES beside them. Groups on a side chain read outwards from the residue. *: point of attachment. C18 diacid = O=C(O)CCCCCCCCCCCCCCCCC(=O)*; C17 diacid = O=C(O)CCCCCCCCCCCCCCCC(=O)*; γGlu = O=C(O)[C@H](CCC(=O)[*:2])N[*:1]; NMeY = CN[C@@H](Cc1ccc(O)cc1)C(=O)O; AEEA = NCCOCCOCC(=O)O; Aib = CC(C)(N)C(=O)O

Assay: Solubility in phosphate buffer pH 7.4
How it was run: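 3 mg of peptide treated with 100 μL portions of 200 mM phosphate buffer pH 7.4, sonicating/vortexing up to 1 min, with further buffer added until fully dissolved. Solubility then quantified by HPLC.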

[1] = pH 7.4, aqueous buffer, pH 7.4 Phosphate Buffer - Solubility, 200 mM Phosphate buffer pH 7.4

Row | SMILES | solubility [1] [mg/mL] | solubility (pH 7.4, solubility in phosphate buffer at pH 7.4, 200 mM phosphate buffer pH 7.4) [mg/mL] | solubility (pH 7.4) [mg/mL] | solubility (pH 7.4, aqueous buffer) [mg/mL]
1 | CC[C@H](C)[C@H](NC(=O)[C@H](Cc1ccccc1)NC(=O)[C@@H](NC(=O)CNC(=O)[C@H](CCC(=O)O)NC(=O)C(C)(C)NC(=O)[C@H](Cc1ccc(O)cc1)NC)[C@@H](C)O)C(=O)N[C@@H](CO)C(=O)N[C@@H](CC(=O)O)C(=O)N[C@@H](Cc1ccc(O)cc1)C(=O)N[C@@H](CO)C(=O)N[C@H](C(=O)NC(C)(C)C(=O)N[C@@H](CC(C)C)C(=O)N[C@@H](CC(=O)O)C(=O)N[C@@H](CCCNC(=N)N)C(=O)NC(C)(C)C(=O)N[C@@H](CCCCNC(=O)COCCOCCNC(=O)COCCOCCNC(=O)CC[C@H](NC(=O)CC[C@H](NC(=O)CCCCCCCCCCCCCCCCC(=O)O)C(=O)O)C(=O)O)C(=O)N[C@@H](C)C(=O)NC(C)(C)C(=O)N[C@@H](CC(N)=O)C(=O)N[C@@H](Cc1ccccc1)C(=O)N[C@H](C(=O)N[C@@H](CC(N)=O)C(=O)N[C@@H](Cc1c[nH]c2ccccc12)C(=O)N[C@@H](CC(C)C)C(=O)N[C@@H](CC(C)C)C(=O)N[C@@H](C)C(=O)N[C@@H](CCC(N)=O)C(=O)N[C@@H](CO)C(=O)N1CCC[C@H]1C(=O)N[C@@H](CO)C(=O)N[C@@H](CO)C(=O)NCC(=O)N[C@@H](C)C(=O)N1CCC[C@H]1C(=O)N1CCC[C@H]1C(=O)N1CCC[C@H]1C(=O)N[C@@H](CO)C(N)=O)C(C)C)[C@@H](C)CC [Compound 109] (H-[NMeY][Aib]EGTFISDYSI[Aib]LDR[Aib]K([AEEA-AEEA-γGlu-γGlu-C18 diacid])A[Aib]NFVNWLLAQSPSSGAPPPS-NH2) | ≥ 60 | ≥ 15 |  | 
2 | CC[C@H](C)[C@H](NC(=O)[C@H](CO)NC(=O)[C@H](Cc1ccc(O)cc1)NC(=O)[C@H](CC(=O)O)NC(=O)[C@H](CO)NC(=O)[C@@H](NC(=O)[C@H](Cc1ccccc1)NC(=O)[C@@H](NC(=O)CNC(=O)[C@H](CCC(=O)O)NC(=O)C(C)(C)NC(=O)[C@@H](N)Cc1ccc(O)cc1)[C@@H](C)O)[C@@H](C)CC)C(=O)N[C@@H](C)C(=O)N[C@@H](CC(C)C)C(=O)N[C@@H](CC(=O)O)C(=O)N[C@@H](CCCCN)C(=O)N[C@@H](C)C(=O)N[C@@H](CCCCNC(=O)COCCOCCNC(=O)COCCOCCNC(=O)CC[C@H](NC(=O)CCCCCCCCCCCCCCCCC(=O)O)C(=O)O)C(=O)N[C@@H](CCC(N)=O)C(=O)NC(C)(C)C(=O)N[C@@H](CC(=O)O)C(=O)N[C@@H](Cc1ccccc1)C(=O)N[C@H](C(=O)N[C@@H](CCC(=O)O)C(=O)N[C@@H](Cc1c[nH]c2ccccc12)C(=O)N[C@@H](CC(C)C)C(=O)N[C@@H](CC(C)C)C(=O)N[C@@H](C)C(=O)N[C@@H](CCC(N)=O)C(=O)N[C@@H](CCCNC(=N)N)C(=O)NCC(=O)O)C(C)C [Compound 161] (H-Y[Aib]EGTFISDYSIALDKAK([AEEA-AEEA-γGlu-C18 diacid])Q[Aib]DFVEWLLAQRG-OH) |  |  | ≥ 15 | ≥ 30
3 | CC[C@H](C)[C@H](NC(=O)[C@H](CO)NC(=O)[C@H](Cc1ccc(O)cc1)NC(=O)[C@H](CC(=O)O)NC(=O)[C@H](CO)NC(=O)[C@@H](NC(=O)[C@H](Cc1ccccc1)NC(=O)[C@@H](NC(=O)CNC(=O)[C@H](CCC(=O)O)NC(=O)C(C)(C)NC(=O)[C@H](Cc1ccc(O)cc1)NC)[C@@H](C)O)[C@@H](C)CC)C(=O)N[C@@H](C)C(=O)N[C@@H](CC(C)C)C(=O)N[C@@H](CC(=O)O)C(=O)N[C@@H](CCCNC(=N)N)C(=O)N[C@@H](CCCCNC(=O)CNC(=O)CNC(=O)CNC(=O)CNC(=O)CNC(=O)CCCCCCCCCCCCCCCCC(=O)O)C(=O)N[C@@H](C)C(=O)N[C@@H](CCC(N)=O)C(=O)NC(C)(C)C(=O)N[C@@H](CC(N)=O)C(=O)N[C@@H](Cc1ccccc1)C(=O)N[C@H](C(=O)N[C@@H](CC(N)=O)C(=O)N[C@@H](Cc1c[nH]c2ccccc12)C(=O)N[C@@H](CC(C)C)C(=O)N[C@@H](CC(C)C)C(=O)N[C@@H](C)C(=O)N[C@@H](CCC(N)=O)C(=O)N[C@@H](CO)C(=O)N1CCC[C@H]1C(=O)NCC(=O)O)C(C)C [Compound 290] |  |  |  | ≥ 7.5
4 | CC[C@H](C)[C@H](NC(=O)[C@H](Cc1ccccc1)NC(=O)[C@@H](NC(=O)CNC(=O)[C@H](CCC(=O)O)NC(=O)C(C)(C)NC(=O)[C@H](Cc1ccc(O)cc1)NC)[C@@H](C)O)C(=O)N[C@@H](CO)C(=O)N[C@@H](CC(=O)O)C(=O)N[C@@H](Cc1ccc(O)cc1)C(=O)N[C@@H](CO)C(=O)N[C@H](C(=O)NC(C)(C)C(=O)N[C@@H](CC(C)C)C(=O)N[C@@H](CC(=O)O)C(=O)N[C@@H](CCCNC(=N)N)C(=O)NC(C)(C)C(=O)N[C@@H](C)C(=O)N[C@@H](CCC(N)=O)C(=O)NC(C)(C)C(=O)N[C@@H](CC(N)=O)C(=O)N[C@@H](Cc1ccccc1)C(=O)N[C@H](C(=O)N[C@@H](CC(N)=O)C(=O)N[C@@H](Cc1c[nH]c2ccccc12)C(=O)N[C@@H](CC(C)C)C(=O)N[C@@H](CC(C)C)C(=O)N[C@@H](C)C(=O)N[C@@H](CCC(N)=O)C(=O)N[C@@H](CCCCNC(=O)COCCOCCNC(=O)COCCOCCNC(=O)CC[C@H](NC(=O)CC[C@H](NC(=O)CCCCCCCCCCCCCCCC(=O)O)C(=O)O)C(=O)O)C(=O)NCC(=O)NCC(=O)NCC(=O)NCC(=O)N[C@@H](CO)C(N)=O)C(C)C)[C@@H](C)CC [Compound 33] (H-[NMeY][Aib]EGTFISDYSI[Aib]LDR[Aib]AQ[Aib]NFVNWLLAQK([AEEA-AEEA-γGlu-γGlu-C17 diacid])GGGGS-NH2) |  |  | ≥ 15 | ≥ 30
5 | CC[C@H](C)[C@H](NC(=O)[C@H](CCCNC(=N)N)NC(=O)[C@H](CC(=O)O)NC(=O)[C@H](CCCCNC(=O)COCCOCCNC(=O)COCCOCCNC(=O)CC[C@H](NC(=O)CCCCCCCCCCCCCCCCC(=O)O)C(=O)O)NC(=O)[C@H](C)NC(=O)[C@@H](NC(=O)[C@H](CO)NC(=O)[C@H](Cc1ccc(O)cc1)NC(=O)[C@H](CC(=O)O)NC(=O)[C@H](CO)NC(=O)[C@@H](NC(=O)[C@H](Cc1ccccc1)NC(=O)[C@@H](NC(=O)CNC(=O)[C@H](CCC(=O)O)NC(=O)C(C)(C)NC(=O)[C@H](Cc1ccc(O)cc1)NC)[C@@H](C)O)[C@@H](C)CC)[C@@H](C)CC)C(=O)N[C@@H](C)C(=O)N[C@@H](CCC(N)=O)C(=O)NC(C)(C)C(=O)N[C@@H](CC(N)=O)C(=O)N[C@@H](Cc1ccccc1)C(=O)N[C@H](C(=O)N[C@@H](CC(N)=O)C(=O)N[C@@H](Cc1c[nH]c2ccccc12)C(=O)N[C@@H](CC(C)C)C(=O)N[C@@H](CC(C)C)C(=O)N[C@@H](C)C(=O)N[C@@H](CCC(N)=O)C(=O)N[C@@H](CCCNC(=N)N)C(N)=O)C(C)C [Compound 252] (H-[NMeY][Aib]EGTFISDYSIAK([AEEA-AEEA-γGlu-C18 diacid])DRIAQ[Aib]NFVNWLLAQR-NH2) |  |  |  | ≥ 7.3
6 | CC[C@H](C)[C@H](NC(=O)[C@H](Cc1ccccc1)NC(=O)[C@@H](NC(=O)CNC(=O)[C@H](CCC(=O)O)NC(=O)C(C)(C)NC(=O)[C@@H](N)Cc1ccc(O)cc1)[C@@H](C)O)C(=O)N[C@@H](CO)C(=O)N[C@@H](CC(=O)O)C(=O)N[C@@H](Cc1ccc(O)cc1)C(=O)N[C@@H](CO)C(=O)N[C@H](C(=O)NC(C)(C)C(=O)N[C@@H](CC(C)C)C(=O)N[C@@H](CC(=O)O)C(=O)N[C@@H](CCCCN)C(=O)N[C@@H](C)C(=O)N[C@@H](CCCCNC(=O)COCCOCCNC(=O)COCCOCCNC(=O)CC[C@H](NC(=O)CCCCCCCCCCCCCCCCC(=O)O)C(=O)O)C(=O)N[C@@H](CCC(N)=O)C(=O)N[C@@H](CCC(N)=O)C(=O)N[C@@H](CC(=O)O)C(=O)N[C@@H](Cc1ccccc1)C(=O)N[C@H](C(=O)N[C@@H](CC(N)=O)C(=O)N[C@@H](Cc1c[nH]c2ccccc12)C(=O)N[C@@H](CC(C)C)C(=O)N[C@@H](CC(C)C)C(=O)N[C@@H](C)C(=O)N[C@@H](CCC(N)=O)C(=O)N[C@@H](CCCNC(=N)N)C(=O)NCC(=O)O)C(C)C)[C@@H](C)CC [Compound 170] (H-Y[Aib]EGTFISDYSI[Aib]LDKAK([AEEA-AEEA-γGlu-C18 diacid])QQDFVNWLLAQRG-OH) |  |  | ≥ 15 | ≥ 30
7 | CC[C@H](C)[C@H](NC(=O)[C@H](CCCNC(=N)N)NC(=O)[C@H](CC(=O)O)NC(=O)[C@H](CCCCNC(=O)CNC(=O)CNC(=O)CNC(=O)CNC(=O)CNC(=O)CCCCCCCCCCCCCCCCC(=O)O)NC(=O)[C@H](C)NC(=O)[C@@H](NC(=O)[C@H](CO)NC(=O)[C@H](Cc1ccc(O)cc1)NC(=O)[C@H](CC(=O)O)NC(=O)[C@H](CO)NC(=O)[C@@H](NC(=O)[C@H](Cc1ccccc1)NC(=O)[C@@H](NC(=O)CNC(=O)[C@H](CCC(=O)O)NC(=O)C(C)(C)NC(=O)[C@H](Cc1ccc(O)cc1)NC)[C@@H](C)O)[C@@H](C)CC)[C@@H](C)CC)C(=O)N[C@@H](C)C(=O)N[C@@H](CCC(N)=O)C(=O)N[C@@H](CCCNC(=N)N)C(=O)N[C@@H](CC(N)=O)C(=O)N[C@@H](Cc1ccccc1)C(=O)N[C@H](C(=O)N[C@@H](CCC(=O)O)C(=O)N[C@@H](Cc1c[nH]c2ccccc12)C(=O)N[C@@H](CC(C)C)C(=O)N[C@@H](CC(C)C)C(=O)N[C@@H](C)C(=O)N[C@@H](CCC(N)=O)C(=O)N[C@@H](CO)C(=O)N1CCC[C@H]1C(=O)NCC(=O)O)C(C)C [Compound 180] |  |  | ≥ 15 | 
8 | CC[C@H](C)[C@H](NC(=O)[C@H](CO)NC(=O)[C@H](Cc1ccc(O)cc1)NC(=O)[C@H](CC(=O)O)NC(=O)[C@H](CO)NC(=O)[C@@H](NC(=O)[C@H](Cc1ccccc1)NC(=O)[C@@H](NC(=O)CNC(=O)[C@H](CCC(=O)O)NC(=O)C(C)(C)NC(=O)[C@H](Cc1ccc(O)cc1)NC)[C@@H](C)O)[C@@H](C)CC)C(=O)N[C@@H](C)C(=O)N[C@@H](CC(C)C)C(=O)N[C@@H](CC(=O)O)C(=O)N[C@@H](CCCNC(=N)N)C(=O)N[C@@H](CCCCNC(=O)CNC(=O)CNC(=O)CNC(=O)CNC(=O)CNC(=O)CCCCCCCCCCCCCCCC(=O)O)C(=O)N[C@@H](Cc1c[nH]cn1)C(=O)N[C@@H](CCC(N)=O)C(=O)NC(C)(C)C(=O)N[C@@H](CC(N)=O)C(=O)N[C@@H](Cc1ccccc1)C(=O)N[C@H](C(=O)N[C@@H](CC(N)=O)C(=O)N[C@@H](Cc1c[nH]c2ccccc12)C(=O)N[C@@H](CC(C)C)C(=O)N[C@@H](CC(C)C)C(=O)N[C@@H](C)C(=O)N[C@@H](CCC(N)=O)C(=O)N[C@@H](CCCNC(=N)N)C(=O)N1CCC[C@H]1C(=O)N[C@@H](CO)C(=O)N[C@@H](CO)C(=O)NCC(=O)N[C@@H](C)C(=O)N1CCC[C@H]1C(=O)N1CCC[C@H]1C(=O)N1CCC[C@H]1C(=O)N[C@@H](CO)C(=O)O)C(C)C [Compound 259] | < 6 |  |  | 
